# Laboratory results: patent US9688653B2, “Ethoxyphenyl thienyl compounds and methods for the treatment of bacterial infections” (Duke University, priority 2013, dated 2017)
# Entries after “also recorded” stand apart in the source; their conditions may differ.
# Experiments:
# [1] = Cytotoxicity counterscreen, CellTiter Glo, 72 hr; format: cell-based, human; conditions: human, bladder carcinoma 5637 cells (ATCC HTB-9), five probe analogues
# In short: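 5637 bladder carcinoma cells were exposed to a 10-point compound series (300-0.58 μM, 0.5% DMSO) for 72 h. Viability was measured by CellTiter-Glo luminescence, and TC50 (CC50) was derived, with Hyamine as cytotoxic control.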
# E. coli K1 strain UTI89 [2] = test: Secondary assay 2: T7 phage-mediated lysis assay; format: cell-based, Escherichia coli; conditions: Escherichia coli, five probe analogues; read-out: T7 phage IC50
# In short: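 E. coli K1 UTI89 shaken 1.5 h with compound (100–0.39 μM, quadruplicate, 1% DMSO), initial OD600 taken to flag growth effects without phage. T7 phage, whose entry is blocked by K capsule, then added; OD600 lysis read after 3 h at 37 °C, greater lysis indicating less capsule.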
# E. coli K1 strain UTI89 [3] = test: microbe, parasite or virus in culture; conditions: for IC50: Escherichia coli; for Selectivity: five probe analogues
# In short: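 UTI89 cultures in LB with 0.5% DMSO were preincubated 2 hr at 37 °C with compounds (100 μM in screen), then with K1F phage a further 2 hr. Viability was read as Alamar Blue fluorescence. Phage-lysis inhibition is relative to plate bacterial controls; IC50 by 4-parameter fit locked at 0 and 100.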
# [4] = Thiol stability (glutathione, DTT); format: physicochemical; conditions: 10 μM compound, PBS pH 7.4, room temperature, eight hours
# Experimental: Compounds were dissolved at 10 μM in PBS at pH 7.4 (1% DMSO) and incubated at room temperature with either no thiol source as a negative control, 50 μM glutathione (GSH), or 50 μM dithiothreitol (DTT). The mixtures were sampled every hour for eight hours and analyzed by RP HPLC/UV/HRMS. The analytical RP HPLCUV/HRMS system utilized for the analysis was a Waters Acquity system with UV-detection and mass-detection (Waters LCT Premier). The analytical method conditions included a Waters Acquity HSS T3 C18 column (2.1×50 mm, 1.8 um) and elution with a linear gradient of 1% water to 100% CH3CN at 0.6 mL/min flow rate. Peaks on the 214 nm chromatographs were integrated using the Waters OpenLynx software. Absolute areas under the curve were compared at each time point to determine relative percent compound remaining. The masses of potential adducts were searched for in the final samples to determine if any detectable adduct formed. All samples were prepared in duplicate (FIG. 5). Ethacrynic acid, a known Michael acceptor, was used as a positive control. If solubility of the compound was an issue at 10 μM, PBS was substituted with PBS with 50% acetonitrile (35).
# panel of 68 receptors = conditions: 10 μM, duplicate; upper bound over all targets
# K1 capsule of UTI89 = test: Secondary assay 3: orcinol assay for released K1 capsule polysaccharide; format: cell-based, Escherichia coli; conditions: 100 μM, K1 strain UTI89
# Experimental: E. Secondary Assay 3: Orcinol Secondary Screening for Inhibitors of Bacterial Capsule Biogenesis.
# Purpose: This assay was performed only on the probe candidate. […] The biochemical determination of cell-surface associated capsule was performed using UTI89 or the Delta Region I and Delta Region II capsule mutant bacterial strains.
# Purpose: This assay was performed only on the probe candidate. […] The biochemical determination of cell-surface associated capsule was performed using UTI89 or the delta Region I and Region II capsule mutant bacterial strains.
# Assay Description: The biochemical measurement of cell-surface associated capsule was performed. UTI89 or capsule mutants were grown in culture tubes with and without the test compound (50 μM). The cultures were centrifuged, and the cell pellets were washed in PBS and resuspended in Tris buffer, pH5. […] Released polysaccharide was harvested by separation from whole bacteria by centrifugation followed by deproteination with phenol/chloroform and precipitation with ethanol. The precipitated material was subjected to acid hydrolysis (pH 2 at 80° C. for 1 hr) and incubated with orcinol, which reacts with periodic intermediates to produce a violet color quantified at OD 570 (3) Inhibitors reducing or abrogating surface encapsulation yielded low orcinol levels similar to the capsule export and synthesis mutants (Region I and II). The positive control drug C7 (100 μM final well concentration) was used in this screen.
# Endpoint Read: The samples were read at ambient temperature from the bottom for absorbance at A570 in a BioTek Quantplate reader and the degree of orcinol-reactive material was determined based on the absorbance compared to a wild-type encapsulated strain (UTI89) and a standard curve using purified sialic acid.
# Orcinol assay for released capsule material. Orcinol reactivity was used as a biochemical confirmation of altered extracellular capsule after compound treatment. UTI89 or an isogenic capsule mutant was grown in 100 μM of test compound or 1% DMSO. The assay was performed as previously described. The molecule C7 (100 μM final concentration) was used as a positive control. The assay was performed 3 times with replicate samples.
# [5] = target: norepinephrine transporter (Homo sapiens, UniProt P23975); test: LeadProfilingScreen, single target; format: binding; conditions: duplicate
# Sequence of norepinephrine transporter (P23975 whole entry): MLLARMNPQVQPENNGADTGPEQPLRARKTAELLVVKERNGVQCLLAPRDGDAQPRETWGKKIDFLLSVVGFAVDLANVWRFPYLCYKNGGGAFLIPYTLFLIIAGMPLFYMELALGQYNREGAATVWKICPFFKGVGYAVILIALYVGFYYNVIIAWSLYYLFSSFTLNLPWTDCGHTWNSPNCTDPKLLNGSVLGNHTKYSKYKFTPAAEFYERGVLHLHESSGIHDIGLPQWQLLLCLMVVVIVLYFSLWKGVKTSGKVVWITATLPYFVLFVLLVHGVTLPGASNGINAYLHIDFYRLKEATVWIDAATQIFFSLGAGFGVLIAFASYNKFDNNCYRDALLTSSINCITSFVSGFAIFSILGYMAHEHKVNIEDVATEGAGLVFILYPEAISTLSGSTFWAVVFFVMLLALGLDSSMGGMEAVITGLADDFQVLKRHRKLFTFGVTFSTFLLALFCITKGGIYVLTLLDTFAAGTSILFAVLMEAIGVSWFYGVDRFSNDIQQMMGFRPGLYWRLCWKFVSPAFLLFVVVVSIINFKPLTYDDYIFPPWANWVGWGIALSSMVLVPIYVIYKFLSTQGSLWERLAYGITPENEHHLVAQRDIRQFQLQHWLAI
# Experimental: Evaluation of off-target effects. Off target effects of lead molecules of interest were evaluated using the LeadProfilingScreen commercial assay at Eurofins Panlabs (Bothell, Wash.). Reference standards were run as an integral part of each assay to ensure the validity of the results obtained. Assay results are presented as the percent inhibition of specific binding or activity (for n=2 replicates) for the probe compound tested at a concentration of 10 μM. Details regarding the individual assays and methods are provided in Supplementary Information File 51.
# DU003 & DU011 are biologically selective. DU003 and DU011 were submitted to the Eurofins Panlabs LeadProfilingScreen to assess off-target pharmacology 1421. […] In review of PubChem data, DU011 (CID23602075) is reported to have shown activity in only 21 of 467 (4.5%, as of Sep. 5, 2013) bioassays in which it was tested (assays unrelated to the current project). Per PubChem, DU003 (CID18109210) is reported to have shown activity in only 5 of 427 (1.2%, as of Sep. 5, 2013) bioassays in which it was tested (assays unrelated to the current project).
# E. coli UTI89 = test: Human serum sensitization (MTT); format: cell-based, Escherichia coli; conditions: 50 μM compound, p=0.0067 versus control
# Experimental: Human serum sensitization by capsule inhibitor treatment. Overnight cultures of UTI89 were diluted 1:100 and grown with or without 50 μM compound for approximately 1.5 hrs on a shaker at 37° C. Then 25 μL of anonymous, non-identified, sterile filtered pooled human serum (purchased from Equitech Bio) was added per 100 μL of growth media. This was returned to the shaker for another 3 hrs, after which 20 μL of 5 mg/mL MTT (3-(4,5-Dimethylthiazol-2-yl)-2,5-diphenyltetrazolium bromide) was added. MTT is reduced to purple formazan by bacterial reductase enzymes, thus measuring viable bacteria. This was shaken for another 15 min at 37° C. The sample was spun to remove the growth media, followed by two washes with PBS. The formazan crystals were dissolved in 100 μL of DMSO and measured at OD570.
# K1 antigen of UTI89 = test: K1 antigen whole-cell dot blot with anti-K1 serum; format: cell-based, Escherichia coli; conditions: 100 μM
# Experimental: K1 antigen dot blot. K1 antigen was detected by dot blot assays of culture extracts probed with anti-K1 H46 serum. The assay was performed as previously described. The experiment was repeated twice with similar results, and a representative dot blot is shown.
# [6] = system: Bladder carcinoma 5637 cells; conditions: earlier report; cited from earlier work
# UPEC K1 strain UTI80 = conditions: cited from earlier work
# [7] = read-out: K1 phage IC50 (inhibition of K1 capsule formation)
# [8] = read-out: K1 phage IC50, five probe analogues
compound,measurement,setting,value
"COc1ccc(-c2cc(NC(=O)c3ccc(Br)o3)c(C(=O)O)s2)cc1 [CID 53470446, 3-(5-Bromofuran-2-carboxamido)-5-(4-methoxyphenyl)thiophene-2-carboxylic acid]",IC50 at 72 h,[1],50.5 ± 0.52 µM
same,IC50,E. coli K1 strain UTI89 [2],1.24 µM
same,IC50,E. coli K1 strain UTI89 [3]; [7],11.1 µM
same,IC50,E. coli K1 strain UTI89 [3]; [8],11.1 ± 3.33 µM
same,Selectivity,E. coli K1 strain UTI89 [3],4.55
"O=C(Nc1cc(-c2ccc(C(F)(F)F)cc2)sc1C(=O)O)c1cc2ccccc2o1 [CID 53470417, 3-(Benzofuran-2-carboxamido)-5-(4-(trifluoromethyl)phenyl)thiophene-2-carboxylic acid]",IC50 at 72 h,[1],72.1 µM
same,IC50,E. coli K1 strain UTI89 [2],14.1 µM
same,IC50,E. coli K1 strain UTI89 [3]; [8],> 100 µM
"CCOc1ccc(-c2cc(NC(=O)c3ccc(Br)s3)c(C(=O)O)s2)cc1 [CID 53470415, 3-(5-Bromothiophene-2-carboxamido)-5-(4-ethoxyphenyl)thiophene-2-carboxylic acid]",IC50 at 72 h,[1],49.7 ± 6.49 µM
same,IC50,E. coli K1 strain UTI89 [2],3.33 µM
same,IC50,E. coli K1 strain UTI89 [3]; [8],17 ± 4.49 µM
same,Selectivity,E. coli K1 strain UTI89 [3],2.92
"C=C(CC)C(=O)c1ccc(OCC(=O)O)c(Cl)c1Cl [ethacrynic acid, Ethacrynic acid]",Stability to DTT,[4]; 50 μM DTT,even more rapidly
same,Stability to glutathione,[4]; 50 μM GSH,react rapidly
"O=C(Nc1ccncc1)c1ccc2ncsc2c1 [DU003, N-pyridin-4-yl-1,3-benzothiazole-6-carboxamide]",Inhibition across off-target panel,panel of 68 receptors,< 30%
same,Reduction of orcinol-reactive polysaccharides on surface of bacteria,K1 capsule of UTI89,~80%
same,inhibition at 10 µM,[5],58%
same,Sensitivity of UTI89 to pooled human serum (MTT),E. coli UTI89,further increased serum-mediated killing; also recorded: significantly more sensitive
same,Whole-cell anti-K1 dot blot reactivity,K1 antigen of UTI89,reduces K1 reactive material to levels comparable to those of genetic capsule mutants
"O=C(O)c1sc(-c2ccc(OC(F)(F)F)cc2)cc1NC(=O)c1c(F)cccc1F [CID 53495055, 3-(2,6-Difluorobenzamido)-5-(4-(trifluoromethoxy)phenyl)thiophene-2-carboxylic acid]",IC50 at 72 h,[1],51 ± 2.62 µM
same,IC50,E. coli K1 strain UTI89 [2],1.35 µM
same,IC50,E. coli K1 strain UTI89 [3]; [7],13 µM
same,IC50,E. coli K1 strain UTI89 [3]; [8],13 ± 4.6 µM
same,Selectivity,E. coli K1 strain UTI89 [3],3.91
"O=C(O)c1cc(-c2ccc(-c3ccccc3)cc2)nc2cc3ccccc3cc12 [C7, 2-(4-phenylphenyl)-benzo[g]quinoline-4-carboxylic acid]",Toxicity to cultured bladder epithelial cells,[6],lacks obvious toxicity
same,Reduction of orcinol-reactive polysaccharides on surface of bacteria,K1 capsule of UTI89,~80%
same,Concentration at which the inhibitory effect reaches saturation,UPEC K1 strain UTI80,approximately 25 μM
same,IC50,UPEC K1 strain UTI80; read-out: Concentration giving approximately 50% inhibition of K1F phage lysis (IC50),12.5 to 25 µM
